Source: paper PMC10548452 (Journal of medicinal chemistry, 2021)
Where two headings read alike, the source gives them in different places.

Legend:
[1] = tested on: HIV-1BaL Env-pseudotyped Luc-expressing virus; assay type: cell-based; conditions: PHA-stimulated PBMCs; opioid 10 nM
HIV = conditions: primary human astrocytes, cited from earlier work
GHOST CCR5 cells = assay: Cytotoxicity; conditions: GHOST CCR5 cells; XTT; triplicate
HIV-1BaL [2] = assay: Anti-HIV-1BaL activity; conditions: GHOST CCR5 cells
[3] = target: mouse MOR expressed in CHO cell lines (mMOR-CHO) (Mus musculus, UniProt P42866); assay: MOR competitive radioligand binding assay; conditions: ratio of Ki values vs VZMC001
Chain of mouse MOR expressed in CHO cell lines (mMOR-CHO) (P42866 whole entry): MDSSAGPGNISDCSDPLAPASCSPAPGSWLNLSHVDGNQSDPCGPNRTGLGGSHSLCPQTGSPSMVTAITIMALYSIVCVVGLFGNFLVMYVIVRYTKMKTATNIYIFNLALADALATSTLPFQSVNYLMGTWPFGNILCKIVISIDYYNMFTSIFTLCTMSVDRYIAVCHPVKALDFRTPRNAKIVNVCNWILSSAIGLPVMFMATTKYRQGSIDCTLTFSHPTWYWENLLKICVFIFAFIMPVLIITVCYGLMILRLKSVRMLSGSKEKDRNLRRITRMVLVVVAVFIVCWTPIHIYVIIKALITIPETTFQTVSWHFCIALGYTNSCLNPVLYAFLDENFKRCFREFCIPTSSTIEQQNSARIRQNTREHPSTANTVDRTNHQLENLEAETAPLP

[4] = target: mouse mu opioid receptor (mMOR-CHO) (Mus musculus, UniProt P42866); assay: Calcium mobilization assay in mMOR-CHO cells; assay type: cell-based; conditions: agonist mode, varying concentrations
Chain of mouse mu opioid receptor (mMOR-CHO) (P42866 whole entry): as above

[5] = target: rhesus macaque CCR5 expressed in Chem-1 cells (Macaca mulatta, UniProt P61813); assay: CCR5 competitive radioligand binding assay
CCR5 (HOS-CCR5 cells) = CCR5 (HOS-CCR5 cells) (Homo sapiens, UniProt P51681); assay: Calcium mobilization assay in HOS-CCR5 cells; assay type: cell-based; conditions: for CCR5 activation (agonism) in Ca2+ mobilization assay: within the range of concentrations tested
Chain of CCR5 (HOS-CCR5 cells) (P51681 whole entry): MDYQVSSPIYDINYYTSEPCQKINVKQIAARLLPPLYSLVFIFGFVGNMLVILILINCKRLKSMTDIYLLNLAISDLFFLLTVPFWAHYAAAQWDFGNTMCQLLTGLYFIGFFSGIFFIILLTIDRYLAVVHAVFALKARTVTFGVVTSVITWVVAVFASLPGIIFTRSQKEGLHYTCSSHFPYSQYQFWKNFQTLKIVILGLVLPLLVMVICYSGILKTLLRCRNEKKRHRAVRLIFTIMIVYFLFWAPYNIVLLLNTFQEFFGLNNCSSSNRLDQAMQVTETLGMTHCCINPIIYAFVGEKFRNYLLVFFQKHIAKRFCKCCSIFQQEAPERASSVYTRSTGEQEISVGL

HIV-1BaL [6] = assay: HIV-1BaL infection assay in OPRM1- or control plasmid-transfected TZM-bl cells; assay type: cell-based; conditions: Human immunodeficiency virus 1, TZM-bl, read-out: Inhibition of HIV-1BaL infection EC50, TZM-bl cells containing only control plasmid
[7] = tested on: HIV-1BaL Env-pseudotyped Luc-expressing virus (HIV-1-Luc); assay: HIV-1-Luc infection assay in nonstimulated PBMCs; assay type: cell-based; conditions: 1000 nM
Cytotoxicity = conditions: human
CCR5 (Macaca mulatta) = CCR5 (Macaca mulatta) (UniProt P61813); assay: radioligand binding; conditions: cited from earlier work

Chain of MIP-1α (P10147 27-92): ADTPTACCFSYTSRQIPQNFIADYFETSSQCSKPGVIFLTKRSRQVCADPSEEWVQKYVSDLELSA

## C[C@@H](NC(=O)[C@@H](N)Cc1ccc(O)cc1)C(=O)NCC(=O)N(C)[C@@H](Cc1ccccc1)C(=O)NCCO [DAMGO, [D-Ala^2-MePhe^4-Gly(ol)^5]enkephalin]
[1]
  effect on HIV expression: remarkable increases in HIV expression

## Cc1nnc(C(C)C)n1C1C[C@H]2CC[C@@H](C1)N2CC[C@H](NC(=O)C1CCC(F)(F)CC1)c1ccc(NC(=O)COCC(=O)NCCCCCCCNC(=O)COCC(=O)N[C@@H]2CC[C@@]3(O)[C@H]4Cc5ccc(O)c6c5[C@@]3(CCN4CC3CC3)[C@H]2O6)cc1 (some centres unmarked) [VZMC001, reference compound]
HIV; with morphine
  fold higher inhibition of HIV entry than maraviroc: 7 fold
HIV; without morphine
  fold higher inhibition of HIV entry than maraviroc: 3.3 fold
GHOST CCR5 cells
  Cytotoxicity TC50: >100000 nM
HIV-1BaL [2]; concentrations up to 100 μM, 0 μM defined as 100%
  RT activity: 107.6–226.1%

## CC(C)c1nnc(CCNC(=O)COCC(=O)NCCCCCCCNC(=O)COCC(=O)N[C@@H]2CC[C@@]3(O)[C@H]4Cc5ccc(O)c6c5[C@@]3(CCN4CC3CC3)[C@H]2O6)n1C1C[C@H]2CC[C@@H](C1)N2CC[C@H](NC(=O)C1CCC(F)(F)CC1)c1ccccc1 (some centres unmarked) [VZMC013]
[3]
  fold higher MOR binding affinity than VZMC001: 8.6 fold
[4]
  agonism in Ca2+ mobilization assay: No agonism was observed
[5]; ratio of Ki values vs VZMC014
  fold greater CCR5 binding affinity than monovalent VZMC014: 12 fold
CCR5 (HOS-CCR5 cells); agonist mode
  CCR5 activation (agonism) in Ca2+ mobilization assay: none of these compounds appeared to activate CCR5
CCR5 (HOS-CCR5 cells); ratio of IC50 values vs VZMC001
  fold more potent than VZMC001 in inhibiting CCL5-stimulated Ca2+ mobilization: 2.2 fold
HIV-1BaL [6]
  EC50: 610 nM
[7]
  Inhibition of HIV-1-Luc infectivity: nearly complete blockade
Cytotoxicity
  viability at 6 days, 100 µM: ~100%
GHOST CCR5 cells
  Cytotoxicity TC50: >100000 nM
HIV-1BaL [2]
  TI (therapeutic index, TC50/EC50): >1075

## CNC(=O)COCC(=O)NCCCCCCCNC(=O)COCC(=O)NCCc1nnc(C(C)C)n1[C@@H]1C[C@H]2CC[C@@H](C1)N2CC[C@H](NC(=O)C1CCC(F)(F)CC1)c1ccccc1 [VZMC014]
CCR5 (HOS-CCR5 cells)
  IC50: 116 nM
CCR5 (HOS-CCR5 cells); agonist mode
  CCR5 activation (agonism) in Ca2+ mobilization assay: none of these compounds appeared to activate CCR5

## CC(C)c1nnc(CCNC(=O)COCC(=O)NCCCCCNC(=O)COCC(=O)N[C@@H]2CC[C@@]3(O)[C@H]4Cc5ccc(O)c6c5[C@@]3(CCN4CC3CC3)[C@H]2O6)n1C1C[C@H]2CC[C@@H](C1)N2CC[C@H](NC(=O)C1CCC(F)(F)CC1)c1ccccc1 (some centres unmarked) [VZMC019]
[5]
  IC50: > 10000 nM

## CCL5: C─C motif chemokine ligand 5, CCR5 agonist control [reference compound]
CCR5 (HOS-CCR5 cells); read-out: Ca2+ mobilization agonism EC50, agonist mode, HOS-CCR5 cells with Gqi5
  EC50: 155 ± 6.58 nM

## MIP-1α (from UniProt P10147)
CCR5 (Macaca mulatta)
  Kd: 0.31 nM
